Measured values as given in US20060069132A1, “Azolecarboxamide herbicides” (priority 2004, published 2006).

Tests used:
[1] = test system: smallflower umbrella sedge; assay: Test C flooded paddy test; type: in vivo, Cyperus difformis
goosegrass = assay: Test C pre-/postemergence herbicide test; type: in vivo, Eleusine indica; settings: preemergence
In short: (§1)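 Visual ratings on a 0–100 scale (100 = complete control) made versus untreated controls after 12 to 14 greenhouse days. Test chemicals, formulated in surfactant-containing non-phytotoxic solvent, applied preemergence to planted seeds or postemergence to 1- to 4-leaf plants (2 to 18 cm).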

rice = assay: Test B flooded paddy test; type: in vivo, Oryza sativa; settings: 1000 g ai/ha, scale 0 to 100 (0 no effect, 100 complete control)
In short: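 Read-out: visual comparison with controls, scored 0 to 100, where 100 means complete control and 0 no effect. Formulated chemicals were applied postemergence to plants 2–18 cm tall (1- to 4-leaf), or to flooded-paddy plants at the 2-leaf stage, then held 13 to 15 days under glass.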

velvetleaf = assay: Test C pre-/postemergence herbicide test; type: in vivo, Abutilon theophrasti; settings: preemergence
In short: as §1

barnyardgrass = assay: Test B flooded paddy test; type: in vivo, Echinochloa crus-galli; settings: 1000 g ai/ha, scale 0 to 100 (0 no effect, 100 complete control)
In short: (§2)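 After treating 2-leaf paddy plants or 2–18 cm postemergence plants (1 to 4 leaves) with formulated chemical, researchers kept them in a greenhouse for 13–15 days. Effects were judged visually versus controls: 0 indicates none, 100 total control.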

ducksalad [2] = assay: Test B flooded paddy test; type: in vivo, Heteranthera limosa; settings: 1000 g ai/ha, scale 0 to 100 (0 no effect, 100 complete control)
In short: as §2

johnsongrass = assay: Test C pre-/postemergence herbicide test; type: in vivo, Sorghum halepense; settings: preemergence
In short: as §1

ducksalad [3] = assay: Test C flooded paddy test; type: in vivo, Heteranthera limosa
lambsquarters = assay: Test C pre-/postemergence herbicide test; type: in vivo, Chenopodium album; settings: preemergence
In short: as §1

corn = assay: Test C pre-/postemergence herbicide test; type: in vivo, Zea mays; settings: preemergence
In short: as §1

cocklebur = assay: Test C pre-/postemergence herbicide test; type: in vivo, Xanthium strumarium; settings: for Plant response rating, Cocklebur: preemergence; for Cocklebur plant response rating: Preemergence, 500 g ai/ha, scale 0 to 100, 0 no effect, 100 complete control
In short: as §1

eastern black nightshade = assay: Test C pre-/postemergence herbicide test; type: in vivo, Solanum ptycanthum; settings: preemergence
In short: as §1

[4] = 125 g ai/ha, scale 0 to 100 (0 no effect, 100 complete control)
[5] = 250 g ai/ha, scale of 0 to 100, 0 is no effect, 100 is complete control
[6] = 500 g ai/ha, visual rating after 12 to 14 days, scale 0 to 100 (0 no effect, 100 complete control)
[7] = 125 g ai/ha, scale 0 (no effect) to 100 (complete control), visual, 12 to 14 days
[8] = 500 g ai/ha, scale 0 to 100 (0 no effect, 100 complete control), visual, 12 to 14 days

SMILES: CCNC(=O)c1ccc(F)c(NC(=O)C2CC(C(C)(C)C)=NN2CC)c1 (racemic) [Compound 269]
- Sedge, Umbrella plant response rating ([1]; 62 g ai/ha, scale 0 to 100): 45
- Sedge, Umbrella plant response rating [1, 4]: 80
- Sedge, Umbrella plant response rating [1, 5]: 80
- Plant response rating, Sedge, Umbrella [1, 6]: 85
- Plant response rating, Goosegrass (goosegrass; 62 g ai/ha, scale 0 to 100): 70
- Plant response rating, Goosegrass (goosegrass; [7]): 85
- Plant response rating, Goosegrass (goosegrass; 250 g ai/ha, scale 0-100): 95
- Plant response rating, Goosegrass (goosegrass; [8]): 100
- Rice plant response rating (rice): 80
- Plant response rating, Velvetleaf (velvetleaf; 62 g ai/ha, scale 0 to 100): 5
- Plant response rating, Velvetleaf (velvetleaf; 250 g ai/ha, scale 0-100): 75
- Plant response rating, Velvetleaf (velvetleaf; [8]): 80
- Barnyardgrass plant response rating (barnyardgrass): 90
- Ducksalad plant response rating (ducksalad [2]): 80
- Plant response rating, Johnsongrass (johnsongrass; 62 g ai/ha, scale 0 to 100): 40
- Plant response rating, Johnsongrass (johnsongrass; [7]): 60
- Plant response rating, Johnsongrass (johnsongrass; 250 g ai/ha, scale 0-100): 100
- Plant response rating, Johnsongrass (johnsongrass; [8]): 100
- Ducksalad plant response rating (ducksalad [3]; 62 g ai/ha, scale 0 to 100): 55
- Ducksalad plant response rating (ducksalad [3]; [4]): 80
- Ducksalad plant response rating (ducksalad [3]; [5]): 80
- Plant response rating, Ducksalad (ducksalad [3]; [6]): 85
- Plant response rating, Lambsquarters (lambsquarters; 62 g ai/ha, scale 0 to 100): 95
- Plant response rating, Lambsquarters (lambsquarters; [7]): 100
- Plant response rating, Lambsquarters (lambsquarters; 250 g ai/ha, scale 0-100): 100
- Plant response rating, Lambsquarters (lambsquarters; [8]): 100
- Plant response rating, Corn (corn; [7]): 20
- Plant response rating, Corn (corn; 250 g ai/ha, scale 0-100): 40
- Plant response rating, Corn (corn; [8]): 55
- Plant response rating, Cocklebur (cocklebur; 62 g ai/ha, scale 0 to 100): 0
- Plant response rating, Cocklebur (cocklebur; [7]): 0
- Plant response rating, Cocklebur (cocklebur; 250 g ai/ha, scale 0-100): 5
- Cocklebur plant response rating (cocklebur): 50
- Plant response rating, Nightshade (eastern black nightshade; 62 g ai/ha, scale 0 to 100): 90
- Plant response rating, Nightshade (eastern black nightshade; [7]): 100
- Plant response rating, Nightshade (eastern black nightshade; 250 g ai/ha, scale 0-100): 100
- Plant response rating, Nightshade (eastern black nightshade; [8]): 100

SMILES: CCN(CC)C(=O)c1cccc(NC(=O)c2cc(C(C)(C)C)nn2C)n1 [Compound 314]
- Plant response rating, Goosegrass (goosegrass; 62 g ai/ha, scale 0 to 100): 0
- Plant response rating, Goosegrass (goosegrass; [7]): 40
- Plant response rating, Goosegrass (goosegrass; 250 g ai/ha, scale 0-100): 65
- Plant response rating, Goosegrass (goosegrass; [8]): 85
- Rice plant response rating (rice): 0
- Plant response rating, Velvetleaf (velvetleaf; 62 g ai/ha, scale 0 to 100): 0
- Plant response rating, Velvetleaf (velvetleaf; 250 g ai/ha, scale 0-100): 80
- Plant response rating, Velvetleaf (velvetleaf; [8]): 85
- Barnyardgrass plant response rating (barnyardgrass): 30
- Ducksalad plant response rating (ducksalad [2]): 0
- Plant response rating, Johnsongrass (johnsongrass; 62 g ai/ha, scale 0 to 100): 0
- Plant response rating, Johnsongrass (johnsongrass; [7]): 20
- Plant response rating, Johnsongrass (johnsongrass; 250 g ai/ha, scale 0-100): 70
- Plant response rating, Johnsongrass (johnsongrass; [8]): 90
- Plant response rating, Lambsquarters (lambsquarters; 62 g ai/ha, scale 0 to 100): 0
- Plant response rating, Lambsquarters (lambsquarters; [7]): 10
- Plant response rating, Lambsquarters (lambsquarters; 250 g ai/ha, scale 0-100): 30
- Plant response rating, Lambsquarters (lambsquarters; [8]): 85
- Plant response rating, Corn (corn; 62 g ai/ha, scale 0 to 100): 0
- Plant response rating, Corn (corn; [7]): 0
- Plant response rating, Corn (corn; 250 g ai/ha, scale 0-100): 0
- Plant response rating, Corn (corn; [8]): 0
- Plant response rating, Cocklebur (cocklebur; 62 g ai/ha, scale 0 to 100): 0
- Plant response rating, Cocklebur (cocklebur; [7]): 0
- Plant response rating, Cocklebur (cocklebur; 250 g ai/ha, scale 0-100): 0
- Cocklebur plant response rating (cocklebur): 20
- Plant response rating, Nightshade (eastern black nightshade; 62 g ai/ha, scale 0 to 100): 60
- Plant response rating, Nightshade (eastern black nightshade; [7]): 85
- Plant response rating, Nightshade (eastern black nightshade; 250 g ai/ha, scale 0-100): 90
- Plant response rating, Nightshade (eastern black nightshade; [8]): 100
